Patent US20180258180A1, “COMBINATION THERAPY INVOLVING ANTIBODIES AGAINST CLAUDIN 18.2 FOR TREATMENT OF CANCER” (Ganymed Pharmaceuticals AG, priority 2012, published 2018)

Tests used:
CLDN18.2 = CLDN18.2 (Homo sapiens, UniProt P56856); assay: IMAB362 binding to first extracellular domain of CLDN18.2
CLDN18.1 = CLDN18.1 (Homo sapiens, UniProt P56856); assay: IMAB362 binding to other claudin family members
[1] = tested on: CLDN18.2-positive cancer cell lines; assay: IMAB362 treatment of mice bearing CLDN18.2-positive cancer cell lines; type: in vivo
[2] = Repeated dose toxicity study in cynomolgus monkeys; type: in vivo; settings: up to 5 weekly applications of up to 100 mg/kg
Description: (§1) This compartimentalization is lost upon malignant transformation rendering the epitope drugable by IMAB362.

[3] = Toxicity and PK/TK profile studies (any toxicity study); type: in vivo, mice and cynomolgus monkeys
Description: as §1

[4] = Phase I clinical study, single intravenous administration; type: in vivo, human
Description: IMAB362 is in early clinical testing. A phase I clinical study has been conducted in human. […] In an ongoing phase IIa clinical study IMAB362 is given repetitively.

[5] = tested on: NUGC-4 cells expressing CLDN18.2; assay: IMAB362 ADCC with ZA/IL-2 cultivated PBMCs on NUGC-4 cells (luciferase); type: cell-based, human; settings: PBMCs cultivated 14 days with ZA/IL-2, NUGC-4 targets
Experimental: Specific killing was determined in luciferase assays; cf. FIG. 14a. […] NUGC-4 served as target cells.

[6] = tested on: HEK293~CLDN18.2 transfectants; assay: Early treatment of HEK293~CLDN18.2 tumor xenografts; type: in vivo, nude mice; settings: 200 μg twice per week for 6 weeks
Description: (§2) Moreover, advanced tumor treatment experiments were initiated up to 9 days after tumor cell inoculation when tumors had reached volumes of about 60-120 mm^3.
Nude mice were subcutaneously inoculated with 1×10^7 HEK293˜CLDN18.2 transfectants. Treatment of 10 mice per group started 3 days after tumor inoculation. […] Not only time to death was prolonged, but 4 of 10 mice survived the entire observation period of 210 days.

[7] = tested on: HEK293~CLDN18.2 tumor xenografts; assay: Treatment of advanced HEK293~CLDN18.2 tumor xenografts; type: in vivo, nude mice
Description: as §2
(§3) Treatment of 9 to 10 mice per group was initiated when mean tumor volumes reached 88 mm^3 (62-126 mm^3). […] All mice in the groups treated with either PBS or isotype control died within 50-100 days. […] Three of these mice survived the entire observation period (FIG. 20). Importantly, antitumoral efficacy in vivo depends on the presence of the target on the tumor cells.

[8] = tested on: CLDN18.2-negative HEK293 tumor cells; assay: IMAB362 treatment of CLDN18.2-negative HEK293 tumors; design: species or system mice; settings: mouse, in vivo
Description: as §3

[9] = tested on: NUGC-4 gastric cancer cells; assay: NUGC-4 gastric tumor xenograft model; type: in vivo, athymic nude mice
Description: NUGC-4 cells grow aggressively in nude mice.
Tumor sizes were monitored twice weekly.
When 1×10^7 tumor cells are inoculated in mice, the median survival time of untreated mice is not longer than 25 days. […] Mice were stratified size-dependently into treatment groups (FIG. 21).

[10] = tested on: NCI-N87~CLDN18.2 xenograft tumors; assay: NCI-N87~CLDN18.2 gastric carcinoma xenografts, IMAB362 immunotherapy; type: in vivo, nude mice; settings: 800 μg i.v. weekly
Experimental: NCI-N87˜CLDN18.2 xenograft tumors were inoculated subcutaneously by injection of 1×10^7 NCI-N87˜CLDN18.2 cells into the flank of 8 nude mice (female, 6 weeks old) per treatment group. […] Intravenous administration was continued weekly for the whole observation time. Tumor size and animal health was monitored semi-weekly. […] The size of s.c. tumors was measured twice weekly (mean+SEM, ***p<0.001). […] Mice were sacrificed, when tumor reached a volume of 1400 mm^3.

[11] = tested on: NUGC-4~CLDN18.2 xenografts; assay: NUGC-4~CLDN18.2 xenografts, IMAB362 immunotherapy; design: species or system mice; settings: mouse, in vivo
[12] = tested on: NCI-N87~CLDN18.2 xenograft tumors; assay: Combination of IMAB362 and EOF regimen on NCI-N87~CLDN18.2 xenografts; type: in vivo, nude mice
Experimental: NCI-N87˜CLDN18.2 xenograft tumors were inoculated by injection of 1×10^7 NCI-N87˜CLDN18.2 cells subcutaneous into the flank of 9 mice for each treatment group. […] IMAB362 treatment was continued weekly. Tumor size and animal health was monitored semi-weekly. […] The size of s.c. tumors was measured twice weekly (mean+SEM; *p<0.05). […] Mice were sacrificed, when tumor reached a volume of 1400 mm^3.

[13] = tested on: CLDN18.2-transfected HEK293 cells; assay: IMAB362 with ZA/IL-2 induced Vγ9Vδ2 T cells on HEK293~CLDN18.2 tumors in NSG mice; type: in vivo; settings: 200 μg semi-weekly, in the presence of human γδ T cells and ZA (and IL-2)
Experimental: NSG mice lack mature T cells, B cells, natural killer (NK) cells, multiple cytokine signaling pathways, and they have many defects in innate immunity, whereas the niches in the primary and secondary immunological tissues are permissive to colonization by human immune cells.
NSG mice were inoculated subcutaneously with 1×10^7˜CLDN18.2-transfected HEK293 cells. On the same day, mice received 8×10^6 human PBMCs enriched for Vγ9Vδ2 T cells, which were cultured for 14 days in ZA-supplemented medium. […] To maintain human T cells functional, IL-2 was administered semi-weekly and ZA weekly. […] In addition to 9 mice treated as described, two control groups of mice were established.

NUGC-4 xenografts = assay: Biodistribution of Dyelight 680-labeled antibodies in NUGC-4 xenografted nude mice; settings: live imaging

IMAB362: chimeric IgG1 antibody directed against CLDN18.2, developed by Ganymed Pharmaceuticals AG
recognition of the first extracellular domain (ECD1) of CLDN18.2 (CLDN18.2): high affinity and specificity | binding to any other claudin family member including CLDN18.1 (CLDN18.1): does not bind | mice showing regression of their tumor [1]: up to 40% | survival [1]: survival benefit | tolerability of repeated doses i.v. [2]: well tolerated | gastric toxicity ([3]; any toxicity study): no gastric toxicity | adverse effects on male or female reproductive organs ([3]; in vivo): No adverse effects | binding to tissues lacking the target ([3]; in vivo): does not bind | immune activation and cytokine release ([3]; in vivo): does not induce | systemic or local toxicity ([3]; repeated doses i.v., mice and cynomolgus monkeys): No signs of systemic or local toxicity | measured tumor markers ([4]; in one patient, within 4 weeks after treatment): decreased significantly | tolerability in patients ([4]; single i.v. administration, 33-1000 mg/m^2, observed for 28 days): very well tolerated | IMAB362-dependent ADCC activity [5]: Strong | mice surviving the entire observation period of 210 days [6]: 4 of 10 | survival ([6]; start 3 days after inoculation): survival benefit | median survival time ([7]; 200 μg twice per week for 6 weeks, start at mean tumor volume 88 mm^3, versus 25 days): 47 days | mice surviving the entire observation period ([7]; 9 to 10 mice per group): Three | survival ([7]; advanced tumors): survival benefit | antitumoral effects [8]: No antitumoral effects | tumor growth compared to controls ([9]; 200 μg twice weekly, starting 6 days after inoculation, p<0.05): significant inhibited | median survival time ([9]; non-significantly increased, versus 25 days): 31 days | tumor volumes at day 21 after tumor inoculation compared to control mice ([9]; p<0.05): significant smaller | tumor growth rate ([9]; treatment initiated at mean tumor size about 109 mm^3): significantly reduce tumor growth rate | survival time [10]: significantly (p<0.05) longer survival time | tumor growth ([10]; start 5 days after inoculation, versus saline): inhibited highly significant (p<0.001) | survival [11]: significantly (p<0.05) longer survival | tumor sizes at day 14 of treatment [11]: significant (p<0.05) smaller tumor sizes | tumor growth compared to control mice ([12]; IMAB362 800 μg weekly, EOF i.p. day 4, 11, 18, 25): highly significant suppressed tumor growth | median survival ([12]; saline control 59 days): 76 days | outgrowth of CLDN18.2-positive tumors [13]: significantly inhibited and nearly abrogated | retention of labeled antibody signal 120 hours after injection (NUGC-4 xenografts): detectable in comparable intensity
